Measurements taken from patent US20170290774A1, “NEUROKININ-1 RECEPTOR ANTAGONIST COMPOSITION FOR TREATMENT OF DISEASES AND CONDITIONS OF THE RESPIRATORY TRACT” (PLUS VITECH, S.L., priority 2014, published 2017).

How the values were obtained:
Format in all cases: physicochemical
Details in all cases: 25° C.
[1] = Saturation concentration of NK1 receptor antagonists in olive oil
Method: (§1) Each of said mixtures was continuously and gently stirred for 10 minutes at ambient temperature (25° C.) and then maintained at rest for 60 minutes. The saturation concentration was considered to be that which was immediately lower in the aforementioned series than a concentration where deposition was observed, but in which no deposition of the active ingredient was observed.

[2] = Saturation concentration in olive oil:ethanol (9:1)
Method: as §1, with “less” for “lower in the aforementioned series”

[3] = Saturation concentration in different oils (soy, sunflower, rapeseed)
Method: as §1, with “less” for “lower in the aforementioned series”

For `CC(=O)N1CCN([C@H]2CCN(C(=O)N(C)[C@H](C)c3cc(C(F)(F)F)cc(C(F)(F)F)c3)[C@@H](c3ccc(F)cc3C)C2)CC1` [Casopitant], the Saturation concentration [1] was 40 nM, the Saturation concentration [2] was 65 nM and the Saturation concentration ([3]; Rapeseed oil) was 70 nM. It also gave a Saturation concentration ([3]; Soy oil) of 60 nM and a Saturation concentration ([3]; Sunflower oil) of 60 nM.

Work on `CC(=O)N[C@@H](Cc1c[nH]c2ccccc12)C(=O)OCc1cc(C(F)(F)F)cc(C(F)(F)F)c1` [L-732,138] yielded a Saturation concentration [1] of 80 nM, a Saturation concentration [2] of 100 nM and a Saturation concentration ([3]; Rapeseed oil) of 90 nM. It also gave a Saturation concentration ([3]; Soy oil) of 90 nM and a Saturation concentration ([3]; Sunflower oil) of 80 nM.
